We go through 22 compounds from US10174037B2, “Dihydropyrazolopyrimidinone compounds as PDE2 inhibitors” (Merck Sharp & Dohme Corp., priority 2015, dated 2019).

SMILES strings stand for the structures.

As a reminder, the Ki is a measure of affinity in units of concentration, obtained from inhibition or displacement.

In the assay the target is human PDE2A1 (Homo sapiens (Human), UniProt O00408). As to the kind of experiment: PDE selectivity IMAP FP assay, human PDE2A1. Format: biochemical. Particulars: Human PDE2; Lab B; read-out: Human PDE2 Ki (nM) Lab B. In short, it runs like this: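 IMAP fluorescence polarization assay; PDE2 substrate 50 nM FAM-cAMP containing 1000 nM cGMP, enzyme diluted for 20% substrate conversion, in 10 mM Tris HCl pH 7.2, 10 mM MgCl2, 1 mM DTT. Reaction 60 min at room temperature, stopped with IMAP binding solution; polarization read after 1 h. Ki reported.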
Chain of human PDE2A1 (O00408 other isoform, or with tags, fused parts or gaps): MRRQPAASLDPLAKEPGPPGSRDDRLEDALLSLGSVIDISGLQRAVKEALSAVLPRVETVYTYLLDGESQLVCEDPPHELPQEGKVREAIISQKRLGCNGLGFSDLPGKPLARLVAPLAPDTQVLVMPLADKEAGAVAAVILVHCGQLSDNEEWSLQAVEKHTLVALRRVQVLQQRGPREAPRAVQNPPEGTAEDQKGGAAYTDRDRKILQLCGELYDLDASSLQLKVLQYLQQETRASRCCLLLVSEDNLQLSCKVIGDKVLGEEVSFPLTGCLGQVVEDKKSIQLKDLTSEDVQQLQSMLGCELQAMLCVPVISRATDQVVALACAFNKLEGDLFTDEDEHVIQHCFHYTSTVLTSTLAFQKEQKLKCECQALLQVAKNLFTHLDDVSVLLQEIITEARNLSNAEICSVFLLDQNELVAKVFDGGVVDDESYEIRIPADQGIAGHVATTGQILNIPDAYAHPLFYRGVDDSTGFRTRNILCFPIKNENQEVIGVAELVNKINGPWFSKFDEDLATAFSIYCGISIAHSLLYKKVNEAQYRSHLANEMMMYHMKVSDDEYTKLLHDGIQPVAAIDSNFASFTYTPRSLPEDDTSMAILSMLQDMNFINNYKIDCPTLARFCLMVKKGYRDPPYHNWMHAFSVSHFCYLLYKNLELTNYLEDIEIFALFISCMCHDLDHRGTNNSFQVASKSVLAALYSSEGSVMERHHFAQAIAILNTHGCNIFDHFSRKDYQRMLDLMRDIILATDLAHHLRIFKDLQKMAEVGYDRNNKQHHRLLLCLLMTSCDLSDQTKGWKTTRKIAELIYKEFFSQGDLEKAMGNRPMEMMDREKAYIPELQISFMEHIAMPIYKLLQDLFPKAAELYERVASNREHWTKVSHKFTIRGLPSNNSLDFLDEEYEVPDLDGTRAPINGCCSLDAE
For `CCC(c1ccc(C(F)F)c(F)c1)n1nc(CF)c2c(=O)[nH]c(N(C)C)nc21` (single isomer, unassigned) [Example 344, (R)- or (S)-1-(1-(4-(Difluoromethyl)-3-fluorophenyl)propyl)-6-(dimethylamino)-3-(fluoromethyl)-1H-pyrazolo[3,4-d]pyrimidin-4(5H)-one], the Ki amounted to 6.3 nM. Then `CCC(c1ccc(C(F)F)c(F)c1)n1nc(CF)c2c(=O)[nH]c(N(C)C)nc21` (single isomer, unassigned) [Example 345, (S)- or (R)-1-(1-(4-(Difluoromethyl)-3-fluorophenyl)propyl)-6-(dimethylamino)-3-(fluoromethyl)-1H-pyrazolo[3,4-d]pyrimidin-4(5H)-one], with 0.13 nM. Consider `CCC(c1ccc(C(F)F)cc1)n1nc(CF)c2c(=O)[nH]c(N(C)C)nc21` (single isomer, unassigned) [Example 346, (R)- or (S)-1-(1-(4-(Difluoromethyl)phenyl)propyl)-6-(dimethylamino)-3-(fluoromethyl)-1H-pyrazolo[3,4-d]pyrimidin-4(5H)-one], for which the Ki worked out at 6.5 nM.

For the compound `CCC(c1ccc(C(F)F)cc1)n1nc(CF)c2c(=O)[nH]c(N(C)C)nc21` (single isomer, unassigned) [Example 347, (S)- or (R)-1-(1-(4-(Difluoromethyl)phenyl)propyl)-6-(dimethylamino)-3-(fluoromethyl)-1H-pyrazolo[3,4-d]pyrimidin-4(5H)-one], the inhibitory constant (Ki) came out at 0.08 nM.

Turning to `CCC(c1ccc(C(F)F)cc1F)n1nc(CF)c2c(=O)[nH]c(N(C)C)nc21` (single isomer, unassigned) [Example 348, (R)- or (S)-1-(1-(4-(difluoromethyl)-2-fluorophenyl)propyl)-6-(dimethylamino)-3-(fluoromethyl)-1H-pyrazolo[3,4-d]pyrimidin-4(5H)-one], the Ki was found to be 0.03 nM. As for `CCC(c1ccc(C(F)F)cc1F)n1nc(CF)c2c(=O)[nH]c(N(C)C)nc21` (single isomer, unassigned) [Example 349, (S)- or (R)-1-(1-(4-(difluoromethyl)-2-fluorophenyl)propyl)-6-(dimethylamino)-3-(fluoromethyl)-1H-pyrazolo[3,4-d]pyrimidin-4(5H)-one], the Ki was found to be 4 nM. As to `CN(C)c1nc2c(c(CO)nn2C(c2ccc(C(C)(F)F)c(F)c2)C2CC2)c(=O)[nH]1` (single isomer, unassigned) [Example 350, (R)- or (S)-1-(Cyclopropyl(4-(1,1-difluoroethyl)-3-fluorophenyl)methyl)-6-(dimethylamino)-3-(hydroxymethyl)-1H-pyrazolo[3,4-d]pyrimidin-4(5H)-one], the Ki was 0.14 nM.

Consider `CN(C)c1nc2c(c(CO)nn2C(c2ccc(C(C)(F)F)c(F)c2)C2CC2)c(=O)[nH]1` (single isomer, unassigned) [Example 351, (S)- or (R)-1-(Cyclopropyl(4-(1,1-difluoroethyl)-3-fluorophenyl)methyl)-6-(dimethylamino)-3-(hydroxymethyl)-1H-pyrazolo[3,4-d]pyrimidin-4(5H)-one], for which the Ki was determined as 0.02 nM. In the case of `CN(C)c1nc2c(c(CO)nn2C(c2ccc(C(C)(F)F)cc2F)C2CC2)c(=O)[nH]1` (single isomer, unassigned) [Example 352, (R)- or (S)-1-(Cyclopropyl(4-(1,1-difluoroethyl)-2-fluorophenyl)methyl)-6-(dimethylamino)-3-(hydroxymethyl)-1H-pyrazolo[3,4-d]pyrimidin-4(5H)-one], the Ki turned out to be 1.2 nM.

With `CN(C)c1nc2c(c(CO)nn2C(c2ccc(C(C)(F)F)cc2F)C2CC2)c(=O)[nH]1` (single isomer, unassigned) [Example 353, (S)- or (R)-1-(Cyclopropyl(4-(1,1-difluoroethyl)-2-fluorophenyl)methyl)-6-(dimethylamino)-3-(hydroxymethyl)-1H-pyrazolo[3,4-d]pyrimidin-4(5H)-one], the Ki came to 0.05 nM. `CC(C)C(c1ccc(C(C)(F)F)cc1)n1nc(CO)c2c(=O)[nH]c(N)nc21` (single isomer, unassigned) [Example 356]: the Ki came out at 0.68 nM.

In the case of `CC(C)C(c1ccc(C(C)(F)F)cc1)n1nc(CO)c2c(=O)[nH]c(N)nc21` (single isomer, unassigned) [Example 357], the Ki was found to be 19 nM. Then `CNc1nc2c(c(CO)nn2C(c2ccc(C(C)(F)F)cc2)C(C)C)c(=O)[nH]1` (single isomer, unassigned) [Example 358], with 5.3 nM; and `CNc1nc2c(c(CO)nn2C(c2ccc(C(C)(F)F)cc2)C(C)C)c(=O)[nH]1` (single isomer, unassigned) [Example 359], with 0.33 nM. With `C[C@@H](c1ccc(C(F)(F)F)cc1)n1nc(CO)c2c(=O)[nH]c(NCCCCl)nc21` [Example 155, 6-[(3-Chloropropyl)amino]-3-(hydroxymethyl)-1-{(1S)-1-[4-(trifluoromethyl)-phenyl]ethyl}-1,5-dihydro-4H-pyrazolo[3,4-d]pyrimidin-4-one], the Ki is 3.8 nM. Turning to `C[C@@H](c1ccc(C(F)(F)F)cc1)n1nc(CO)c2c(=O)[nH]c(N)nc21` [Example 157, 6-Amino-3-(hydroxymethyl)-1-{(1S)-1-[4-(trifluoromethyl)phenyl]ethyl}-1,5-dihydro-4H-pyrazolo[3,4-d]pyrimidin-4-one], the Ki stood at 12 nM. Consider `C[C@@H](c1ccc(C(F)(F)F)cc1)n1nc(CO)c2c(=O)[nH]c(N3CCC3)nc21` [Example 158, (S)-6-(Azetidin-1-yl)-3-(hydroxymethyl)-1-(1-(4-(trifluoromethyl)phenyl)ethyl)-1,5-dihydro-4H-pyrazolo[3,4-d]pyrimidin-4-one], for which the Ki came out at 0.89 nM. On to `C[C@@H](c1ccc(C(F)(F)F)cc1)n1nc(CO)c2c(=O)[nH]c(N3CC(F)(F)C3)nc21` [Example 159, 6-(3,3-Difluoroazetidin-1-yl)-3-(hydroxymethyl)-1-{(1S)-1-[4-(trifluoromethyl)phenyl]ethyl}-1,5-dihydro-4H-pyrazolo[3,4-d]pyrimidin-4-one], for which the Ki was determined as 2.3 nM. Then `CC1CN(c2nc3c(c(CO)nn3[C@@H](C)c3ccc(C(F)(F)F)cc3)c(=O)[nH]2)C1` [Example 160, 3-(Hydroxymethyl)-6-(3-methylazetidin-1-yl)-1-{(1S)-1-[4-(trifluoromethyl)phenyl]ethyl}-1,5-dihydro-4H-pyrazolo[3,4-d]pyrimidin-4-one], with 1.6 nM; and `C[C@@H](c1ccc(C(F)(F)F)cc1)n1nc(C(F)F)c2c(=O)[nH]c(N(C)C)nc21` [Example 289, (S)-3-(Difluoromethyl)-6-(dimethylamino)-1-(1-(4-(trifluoromethyl)phenyl)ethyl)-1H-pyrazolo[3,4-d]pyrimidin-4(5H)-one], with 0.25 nM; and `CSc1nc2c(c(CO)nn2[C@@H](C)c2ccc(C(F)(F)F)cc2)c(=O)[nH]1` [Example 301, (S)-3-(Hydroxymethyl)-6-(methylthio)-1-(1-(4-(trifluoromethyl)phenyl)ethyl)-1H-pyrazolo[3,4-d]pyrimidin-4(5H)-one], with 1.8 nM. On to `C[C@@H](c1ccc(C(F)(F)F)cc1)n1nc(C(F)(F)F)c2c(=O)[nH]c(N(C)C)nc21` [Example 339, (S)-6-(Dimethylamino)-3-(trifluoromethyl)-1-(1-(4-(trifluoromethyl)phenyl)ethyl)-1H-pyrazolo[3,4-d]pyrimidin-4(5H)-one], for which the Ki turned out to be 2.1 nM.
